Read-outs that look alike come from different tables or passages of the source.
Experiments:
Jack bean α-mannosidase = target: T1, Jack bean α-mannosidase (Canavalia ensiformis, UniProt C0HJB3); assay: Glycosidase inhibition, Jack bean α-mannosidase; format: biochemical
T1 construct: purchased Sigma-Aldrich Co
T1 sequence (C0HJB3 1-981): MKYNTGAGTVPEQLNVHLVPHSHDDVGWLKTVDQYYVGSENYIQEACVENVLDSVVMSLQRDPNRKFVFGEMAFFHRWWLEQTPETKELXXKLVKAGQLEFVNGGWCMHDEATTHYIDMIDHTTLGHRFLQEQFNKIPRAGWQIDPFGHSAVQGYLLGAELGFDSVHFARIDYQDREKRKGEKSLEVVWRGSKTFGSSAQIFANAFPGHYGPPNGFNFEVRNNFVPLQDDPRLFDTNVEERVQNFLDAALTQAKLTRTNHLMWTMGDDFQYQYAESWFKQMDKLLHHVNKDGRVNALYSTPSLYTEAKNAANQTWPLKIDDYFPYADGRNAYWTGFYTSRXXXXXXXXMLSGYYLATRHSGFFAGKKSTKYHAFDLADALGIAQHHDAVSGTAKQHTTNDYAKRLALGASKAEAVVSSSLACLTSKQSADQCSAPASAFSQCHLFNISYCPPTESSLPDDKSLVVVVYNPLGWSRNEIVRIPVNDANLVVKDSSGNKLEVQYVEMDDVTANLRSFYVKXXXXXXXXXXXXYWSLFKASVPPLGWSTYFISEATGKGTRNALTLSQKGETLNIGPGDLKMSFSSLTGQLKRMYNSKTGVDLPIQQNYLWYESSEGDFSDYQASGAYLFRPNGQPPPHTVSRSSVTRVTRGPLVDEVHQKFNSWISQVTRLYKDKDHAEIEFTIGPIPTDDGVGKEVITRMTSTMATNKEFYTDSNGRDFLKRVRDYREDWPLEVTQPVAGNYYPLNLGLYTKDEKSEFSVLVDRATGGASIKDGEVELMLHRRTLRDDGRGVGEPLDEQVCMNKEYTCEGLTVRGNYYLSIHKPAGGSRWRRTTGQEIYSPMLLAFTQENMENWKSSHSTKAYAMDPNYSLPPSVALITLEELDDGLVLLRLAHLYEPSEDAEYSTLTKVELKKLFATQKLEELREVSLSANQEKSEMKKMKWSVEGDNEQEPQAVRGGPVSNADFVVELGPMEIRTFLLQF
Text: (§1) Glycosidase modulation studies need to explore selectivity as well as potency. Our drugs and controls are therefore screened against a panel of glycosidases in methanol (Table 1) to identify the glycosidase-related disease area(s), selectivity profile, and potency of biological action for each drug. The presence of organic boron covalently bonded to the drug structure also grants a reduced toxicity profile. Following the glycosidase inhibition range recommendations, an IC50 value >250 μm denotes weak inhibition, 100–249 μm denotes moderate inhibition, 10–99 μm good inhibition, 0.1–9 μm potent inhibition, and <0.1 μm very potent inhibition. […] Our boronated D-galactose 7 represents a novel lead in glycosidase inhibition.
(§2) The glycosidases screened are the following: rice α-glucosidase, yeast α-glucosidase, Bacillus α-glucosidase, rat intestinal maltase α-glucosidase, almond β-glucosidase, bovine liver β-glucosidase, coffee beans α-galactosidase, bovine liver β-galactosidase, Jack bean α-mannosidase, snail β-mannosidase, Penicillium decumbens α-L-rhamnosidase, bovine kidney α-L-fucosidase, Eschierichia coli β-glucuronidase, bovine liver β-glucuronidase, porcine kidney trehalase, Aspergillus niger amyloglucosidase, and bovine kidney N-acetyl-β-glucosaminidase. The disease areas for each glycosidase are summarized in [1].
(§3) The enzymes α-glucosidase (from yeast), β-glucosidases (from almond and bovine liver), α-galactosidase (from coffee beans), β-galactosidase (from bovine liver), α-mannosidase (from Jack bean), β-mannosidase (from snail), α-L-rhamnosidase (from Penicillium decumbens), α-L-fucosidase (from bovine kidney), trehalase (from porcine kidney), β-glucuronidases (from E. coli and bovine liver), amyloglucosidase (from A. niger), para-nitrophenyl glycosides, and various disaccharides were purchased from Sigma-Aldrich Co.
(§4) Brush border membranes were prepared from the rat small intestine according to the method of Kessler et al. and were assayed at pH 6.8 for rat intestinal maltase using maltose. For rat intestinal maltase, porcine kidney trehalase, and A. niger amyloglucosidase activities, the reaction mixture contained 25 mM maltose and the appropriate amount of enzyme, and the incubations were performed for 10–30 min at 37 °C. The reaction was stopped by heating at 100 °C for 3 min. After centrifugation (600 g; 10 min), the resulting reaction mixture was added to the Glucose CII-test Wako (Wako Pure Chemical Ind., Osaka, Japan). The absorbance at 505 nm was measured to determine the amount of the released D-glucose. Other glycosidase activities were determined using an appropriate para-nitrophenyl glycoside as substrate at the optimum pH of each enzyme. The reaction mixture contained 2 mM of the substrate and the appropriate amount of enzyme. The reaction was stopped by the addition of 400 mM Na2CO3. The released para-nitrophenol was measured spectrometrically at 400 nm. All reactions run in methanol.

[1] = system: Penicillium decumbens α-L-rhamnosidase; assay: Glycosidase inhibition, Penicillium decumbens α-L-rhamnosidase; format: biochemical; conditions: for inhibition %: in methanol
Text: as §1, §2, §3, §4

A431 (skin carcinoma) = assay: Cancer screening (MTT growth inhibition), A431; format: cell-based; conditions: 72 h; for inhibition at 25 µM: A-431, 25 µM of drug, read-out: Percentage (%) cell growth inhibition; for inhibition at 25 µM / Percentage (%) cell growth inhibition: n = 3, mean ± SEM; for Percentage (%) cell growth inhibition: 25 µM of drug
Procedure: (§5) All test agents were prepared as stock solutions (20 mM) in dimethyl sulfoxide (DMSO) and stored at −20 °C. Cell lines used in the study included: HT29 (colorectal carcinoma), U87 and SJ-G2 (glioblastoma), MCF-7 (breast carcinoma), A2780 (ovarian carcinoma), H460 (lung carcinoma), A431 (skin carcinoma), Du145 (prostate carcinoma), BE2-C (neuroblastoma), MiaPaCa-2 (pancreatic carcinoma), SMA560 (spontaneous murine astrocytoma), and ADDP (Cis Res Ovarian), together with one non-tumor-derived normal breast cell line (MCF10A). All cell lines were incubated in a humidified atmosphere with 5 % CO2 at 37 °C. The cancer cell lines were maintained in Dulbecco’s modified Eagle’s medium (DMEM; Sigma, Australia) supplemented with fetal bovine serum (10%), sodium pyruvate (10 mM), penicillin (100 IUmL^−1), streptomycin (100 µg mL^−1), and L-glutamine (2 mM).
(§6) Growth inhibition was determined by plating cells in duplicate in medium (100 µL) at a density of 2500–4000 cells per well in 96-well plates. On day 0 (24 h after plating), when the cells are in logarithmic growth, medium (100 µL) with or without the test agent was added to each well. After 72 h of drug exposure, growth inhibitory effects were evaluated using the (3-(4,5-dimethyltiazol-2-yl)-2,5-diphenyltetrazolium bromide) (MTT) assay and absorbance read at 540 nm. The percentage growth inhibition was calculated at a fixed concentration of 25 µM, based on the difference between the optical density values on day 0 and those at the end of drug exposure. Each data point is the mean ± the standard error of the mean (SEM) calculated from three replicates, which were performed on separate occasions and in separate cell line passages.

rice α-glucosidase = rice α-glucosidase (Oryza sativa subsp. japonica, UniProt Q653V7); assay: Glycosidase inhibition, rice α-glucosidase; format: biochemical
Text: as §1, §2, §4

[2] = system: A2780 (ovarian carcinoma); assay: Cancer screening (MTT growth inhibition), A2780; format: cell-based; conditions: 72 h; for inhibition at 25 µM: A2780, 25 µM of drug, read-out: Percentage (%) cell growth inhibition; for inhibition at 25 µM / Percentage (%) cell growth inhibition: n = 3, mean ± SEM; for Percentage (%) cell growth inhibition: 25 µM of drug
Procedure: as §5, §6

[3] = at 1000 μM, in methanol, read-out: inhibition %
[4] = at 1000 μM, read-out: NI: No inhibition
[5] = at 100 μM, in methanol, read-out: inhibition %
[6] = at 100 μM, read-out: NI: No inhibition

Sequence of rice α-glucosidase (Q653V7 34-885): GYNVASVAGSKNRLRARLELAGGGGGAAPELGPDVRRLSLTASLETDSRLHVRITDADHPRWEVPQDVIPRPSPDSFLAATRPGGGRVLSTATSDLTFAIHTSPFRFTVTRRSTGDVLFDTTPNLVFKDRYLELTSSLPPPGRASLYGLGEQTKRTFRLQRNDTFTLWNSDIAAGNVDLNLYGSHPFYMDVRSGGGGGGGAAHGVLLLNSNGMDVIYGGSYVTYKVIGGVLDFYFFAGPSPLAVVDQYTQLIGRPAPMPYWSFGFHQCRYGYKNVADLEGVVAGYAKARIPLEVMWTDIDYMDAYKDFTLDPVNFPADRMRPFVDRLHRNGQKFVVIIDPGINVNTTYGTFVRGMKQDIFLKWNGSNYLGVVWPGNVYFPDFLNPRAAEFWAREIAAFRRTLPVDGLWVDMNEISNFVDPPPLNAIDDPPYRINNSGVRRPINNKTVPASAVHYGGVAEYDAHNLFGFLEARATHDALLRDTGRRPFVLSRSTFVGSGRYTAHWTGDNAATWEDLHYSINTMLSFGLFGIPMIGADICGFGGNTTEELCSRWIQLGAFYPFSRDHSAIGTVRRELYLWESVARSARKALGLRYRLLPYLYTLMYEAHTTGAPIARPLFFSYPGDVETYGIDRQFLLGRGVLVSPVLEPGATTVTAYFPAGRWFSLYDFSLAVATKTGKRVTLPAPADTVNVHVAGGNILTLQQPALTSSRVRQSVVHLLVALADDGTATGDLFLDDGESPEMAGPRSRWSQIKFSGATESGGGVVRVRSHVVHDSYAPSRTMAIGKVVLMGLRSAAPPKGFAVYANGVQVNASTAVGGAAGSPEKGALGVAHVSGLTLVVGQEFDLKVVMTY

Compound	NI: No inhibition ([1]; at 1000 μM)	inhibition % ([1]; at 1000 μM)	inhibition at 25 µM (A431 (skin carcinoma); Homo sapiens)	inhibition at 25 µM ([2]; Homo sapiens)	NI: No inhibition ([1]; at 100 μM)	inhibition % ([1]; at 100 μM)	Percentage (%) cell growth inhibition (A431 (skin carcinoma))	Percentage (%) cell growth inhibition [2]	inhibition at 100 µM (Jack bean α-mannosidase; [5])	inhibition at 100 µM (Jack bean α-mannosidase; [6])	inhibition at 100 µM (rice α-glucosidase; [5])	inhibition at 100 µM (rice α-glucosidase; [6])	further results
OCC1OC(O)C(O)C(B(O)O)C1O [Compound 7, 3-Boronic-3-Deoxy-D-galactose]	NI (No inhibition (less than 50% inhibition at 1000 μM))	0%	3%	8 ± 3%	–	–	–	–	–	–	–	–	inhibition at 1000 µM (Jack bean α-mannosidase; [3]): 0%; inhibition at 1000 µM (Jack bean α-mannosidase; [4]): < 50%; GI50 (A431 (skin carcinoma); Homo sapiens, A-431, dose response, read-out: GI50 = Concentration that inhibits cell growth by 50%): > 50 µM; inhibition at 1000 µM (rice α-glucosidase; [3]): 33.8%; inhibition at 1000 µM (rice α-glucosidase; [4]): < 50%; GI50 ([2]; Homo sapiens, A2780, dose response, read-out: GI50 = Concentration that inhibits cell growth by 50%): > 50 µM
N[C@@H](Cc1ccc(B(O)O)cc1)C(=O)O [^10B-BPA]	–	–	–	–	NI (No inhibition (less than 50% inhibition at 100 μM))	0%	4 ± 4%	8 ± 4%	–	–	–	–	NI: No inhibition (Jack bean α-mannosidase; at 100 μM): NI (No inhibition (less than 50% inhibition at 100 μM)); inhibition % (Jack bean α-mannosidase; at 100 μM, in methanol): 0%; NI: No inhibition (rice α-glucosidase; at 100 μM): NI (No inhibition (less than 50% inhibition at 100 μM)); inhibition % (rice α-glucosidase; at 100 μM, in methanol): 0%
CC1(C)OCC(C2OC3OC(C)(C)OC3C2[B-]23OCC[NH+]2CCO3)O1 [Compound 6, 3-Deoxy-3-Boronodiethanolamine-1,2:5,6-Di-O-isopropylidene-α-D-galactofuranose]	–	–	0%	10 ± 5%	NI (No inhibition (less than 50% inhibition at 100 μM))	0.3%	–	–	0%	< 50%	5.9%	< 50%	–
Borocaptate sodium [BSH]	NI (No inhibition (less than 50% inhibition at 1000 μM))	0.2%	–	–	–	–	<0%	2 ± 5%	–	–	–	–	NI: No inhibition (Jack bean α-mannosidase; at 1000 μM): NI (No inhibition (less than 50% inhibition at 1000 μM)); inhibition % (Jack bean α-mannosidase; at 1000 μM, in methanol): 7.9%; NI: No inhibition (rice α-glucosidase; at 1000 μM): NI (No inhibition (less than 50% inhibition at 1000 μM)); inhibition % (rice α-glucosidase; at 1000 μM, in methanol): 0%
N[C@@H](Cc1ccc(B(O)O)cc1)C(=O)O [BPA, 4-borono-L-phenylalanine]	–	–	4 ± 6%	4 ± 1%	NI (No inhibition (less than 50% inhibition at 100 μM))	0%	–	–	1.1%	< 50%	0%	< 50%	–
